Test results reported in patent publication US6353022B1, “Compositions containing hydroxyeicosatetraenoic acid derivatives and methods of use in treating dry eye disorders” (Alcon Universal Ltd., priority 1999, dated 2002).

Test system: corneal injury induced by dry eye conditions
Assay: in vivo desiccation model of dry eye (methylene blue corneal staining, absorbance at 660 nm)
Set-up: species or system rabbit
Conditions: 15(S)-HETE 1 μM (0.000034% w/v), 50 μL topical O.D., 4-hour desiccation
Procedure: A composition of the present invention (Example 1, with the compound of formula (III) being 15(S)-HETE) was compared to an analogous composition without ethanol, an analogous composition without 15(S)-HETE, and analogous compositions with approximately one-half, one-tenth, and twice the amount of ethanol, respectively, in an in vivo desiccation model of dry eye.
Briefly, the assay was performed by first anesthetizing the animals with ketamine/xylazine/glycopyrrolate. The O.S. eye was lubricated with DuraTears® and remained taped shut throughout the experiment. The O.D. eye was then dosed with 50 μL of test composition (Example 1) or 50 μL of the same composition without ethanol and the eye taped shut for 10 minutes. The tape was then removed, the eyelids opened and a speculum was inserted into the eye. The eye was held open with the speculum for a period of 4 hours. During this time, the animals were monitored every 15 minutes and supplemental injections of ketamine/xylazine (at half the initial dose/injection) were administered as needed to maintain anesthesia. At the end of the 4-hour period, 2 sutures were placed in the upper eyelid and 1 suture was placed in the lower eyelid. A corneal/conjunctival cup was formed by using the sutures to lift the eyelids upward and the sutures taped to a stand. 1 mL methylene blue (1% solution in water) was added to the conjunctival cup and the cornea was stained with the solution for 5 minutes. The eye was then washed with 200 mL of a balanced salt solution. Corneal thickness was determined by non-invasive pachymetry. Three readings were taken for each animal. Corneal staining score was obtained by visualizing the cornea with a slit-lamp and determining the percentage of the cornea that was stained with methylene blue. A photograph was taken using the slit-lamp machine. The rabbit was then euthanized immediately by intravenous injection of Sleepaway® solution and the eye was excised. The cornea was isolated and an 8 mm punch of the central cornea collected. This corneal punch was placed in a small glass vial containing 2 mL acetone/saturated sodium sulfate (7:3, vol/vol). Absorbance of the extracted solution was measured at 660 nm with a spectrophotometer.
The naïve control animals were anesthetized with ketamine/xylazine/glycopyrrolate and the O.S. eye lubricated and taped shut. Sutures were immediately placed in the O.D. eyelids. The corneal cup was formed and the cornea was stained with methylene blue, washed with a balanced salt solution and collected, as described above. The data were converted to “percent protection” by subtracting from 1, the quotient of the test sample absorbances divided by the average of control sample absorbance, and multiplying by 100. The results are contained in Table 1 and illustrated in FIGS. 1 and 2: […]

CCCCC[C@H](O)/C=C/C=C\C/C=C\C/C=C\CCCC(=O)O [15(S)-HETE, 5,8,11,13-Eicosatetraenoic acid, 15-hydroxy-, [15S-(5Z,8Z,11Z,13E)]-]
% Protection (Ethanol 0.0 % (w/v)): 13%
% Protection (Ethanol 0.00505 % (w/v)): 2%
% Protection (Ethanol 0.0252 % (w/v), p < 0.05 versus control): 42%
% Protection (Ethanol 0.0505 % (w/v) (composition of Example 1), p < 0.05 versus control): 60%
% Protection (Ethanol 0.101 % (w/v)): 31%
